Row | melting point [°C] | Compound
1 | 123 to 125 | CC(C)(C)n1nc(Nc2ccccc2)c(C#N)c1N
2 | 155 | OCC1OC(n2cnc3c(Nn4ccc5ccccc54)ncnc32)C(O)C1O (stereo unspecified)
3 | 156 to 158 | COC(=O)c1cccc(CN2CCc3cc(O)c(OC)cc3C2)c1
4 | 137 to 138 | COC(=O)Cc1cccc2c(=O)cc(C3=CCCCC3)oc12
5 | 118 to 119 | COc1nc(C)cnc1NS(=O)(=O)c1cccnc1-c1ccc(CC(C)CO)cc1 (stereo unspecified)
6 | 169 to 172 | CC(=O)OC1CCC2(C)C3=C(CCC2C1)C1CCC(C(C)=O)C1(C)CC3=O (stereo unspecified)
7 | 207 to 208 | Cc1c(Br)c2c(c(C)c1NC(=O)CC(C)(C)C)C(c1ccc(C(C)C)cc1)CS2 (stereo unspecified)
8 | 174 to 175 | CNC(=O)N(C)c1nc2c(s1)C(=O)CC(C)(C)C2
9 | 131 to 134 | COc1cccc(Nc2cc(=S)ss2)c1
10 | 138 to 140 | COc1ccccc1OCC(O)CNc1nc(-c2ccccc2)nc2ccccc12 (stereo unspecified)
11 | 123 to 125 | COC(=O)CS(=O)(=O)CCCCN(c1cnc(-c2ccccc2)c(-c2ccccc2)n1)C(C)C
12 | 107 to 108 | CC(C)(C)c1ccc(N)c([N+](=O)[O-])c1
13 | 221 to 222 | Cc1cc2[nH]c(=O)n(S(=O)(=O)c3ccc(Cl)cc3)c(=O)c2cc1C
14 | 93 to 99 | CCCCCCC1CC(Cn2cncn2)(c2ccccc2)N(C)O1 (stereo unspecified)
15 | 123 to 124 | CNC(=O)C#CCc1ccc(OC)cc1
16 | 153 to 154 | O=S(=O)(c1ccc(I)cc1)N1CCCC(c2ccc(Cl)c(C(F)(F)F)c2)=N1
17 | 189 to 191 | CC(=Cc1ccc2c(c1)Sc1cc(C=C(C)c3ccccc3)ccc1N2C)c1ccccc1
18 | 128 to 130 | CCCCCC(=O)NCCc1ccc(S(=O)(=O)NC(=O)c2ccc(C(=O)NCC(=O)OC)nc2)cc1
19 | 170 | Cc1cc(C(=O)NCc2ccccc2)c(N)s1
20 | 128 | COc1ccc(C(O)CN2CCN(C(c3ccccc3)c3ccccc3)CC2)c(OC)c1OC (stereo unspecified)
21 | 150 | COc1ccc(-c2ccc3c(c2)CC[C@H]2N(C)C(=O)CC[C@]32C)cc1
22 | 175 to 176 | Cc1ccccc1Cc1c(C)c(NC(=O)CC(C)(C)C)c(C)c2c1OC(C)(C)C2
23 | 150 to 152 | Nc1sccc1C(=O)c1ccccc1
24 | 226 to 228 | CC(C)c1cc2c(c3c1C(=O)NS3(=O)=O)OCO2

Row | melting point [°C] | Compound
25 | 72 to 73 | CCOC(=O)c1cc(CC)sc1Nc1c([N+](=O)[O-])cccc1C(F)(F)F
26 | 144 to 146 | Fc1ccc(C(C(Br)c2ccccc2)C(F)(F)F)cc1 (stereo unspecified)
27 | 205 to 206 | Cc1noc(-c2ccc(C(F)(F)F)cc2)c1C(=O)Nc1ccccc1C(=O)O
28 | 101 to 103 | c1cncc(-c2cncnc2)c1
29 | 173 to 175 | CCOCc1nc(N)c(N)c(=O)[nH]1
30 | 266 to 268 | O=C1c2ccccc2C(=O)N1CC(=O)N1c2ccc(F)cc2N(Cc2ccccc2)C(=O)C2CCC[C@H]21 (single isomer, unassigned)
31 | 45 to 46 | O=[N+]([O-])CCc1cccc2ccccc12
32 | 220 | COc1ccc2ccc(NC(=O)c3cccs3)nc2n1
33 | 135 to 137 | CCN1c2cscc2CN(C)c2ccccc21
34 | 160 to 161 | CC(Cc1cccnc1)n1nnc2cc3c(=O)n(C4CC4)nnc3cc2c1=O (stereo unspecified)
35 | 83 to 85 | CC(C)C[C@H](NC(=O)N1CCOCC1)C(=O)N[C@@H](CCc1ccccc1)C(=O)c1oc(-c2ccccc2)nc1-c1ccccc1
36 | 136 to 137 | CCC(OC)c1ccc(Cl)c2nc3n(c12)CCCN3c1ccc(Cl)cc1Cl (stereo unspecified)
37 | 159 | COC(=O)COc1ncccc1Oc1cc(NC(=O)CC(=O)C(F)(F)F)c(F)cc1Cl
38 | 108 to 110 | COC(=O)Cc1ccc(OCCCOc2cc3c(cc2O)CCO3)cc1
39 | 103 to 105 | CCNC(=O)n1nc(Oc2ccc(C#N)cc2C(F)(F)F)cc1C
40 | 62 to 63 | COC(=O)c1c(C)nc(-c2ccccc2)nc1-c1cccc(OC(F)F)c1
41 | 254 to 255 | O=C(CCl)Nc1ccc2c(c1NC(=O)CCl)C(=O)c1ccccc1C2=O
42 | 73 to 74 | Nc1cc(OCC2=CCCSC2)c(Cl)cc1F
43 | 110 to 112 | CCOC(=O)COc1ccc(C2=CC(=O)CCC2CC)c(Cl)c1Cl (stereo unspecified)
44 | 150 to 152 | CCCCOC(=O)NNc1n[nH]c2cc(Cl)ccc12
45 | 164 to 165 | COc1cc2nc(S(=O)Cc3cc(N(C)C)c(Cl)cn3)[nH]c2cc1OC (stereo unspecified)
46 | 68 to 69 | [N-]=[N+]=Nc1cccc2c1C(=O)N(CCCCCC(=O)Cl)C2=O
47 | 261 to 263 | CN1C(C(=O)Nc2ccccc2)=C(O)c2sc3ccccc3c2S1(=O)=O
48 | 180 to 184 | COc1ccc(CCC(N)CC(=O)O)cc1 (stereo unspecified)

Row | melting point [°C] | Compound
49 | 271 to 273 | CS(=O)c1cnc2ccsc2c1O (stereo unspecified)
50 | 225 to 228 | Cn1nnnc1-c1cn(C)c2cc(OC(F)F)ccc2c1=O
51 | 104 to 109 | CC(=O)Nc1ccccc1S(=O)(=O)NCCN1[C@H](C)Cc2ccsc2[C@@H]1C (relative stereo)
52 | 163 to 165 | CN(C)C(=O)c1cc(N2CCN([C@H]3CC[C@@H](c4cn(C)c5ccc(C#N)cc54)CC3)CC2)c2ncccc2c1
53 | 163 to 164 | Cc1cc(O)c(SCc2ccc(Cl)cc2Cl)c(=O)o1
54 | 150 to 155 | CCC(CC)c1ccc(Cl)c2nc(Nc3c(C)noc3C)n(CCCCO)c12
55 | 93 | O=c1cnn(CCCCCl)c(=O)[nH]1
56 | 195 to 197 | Cn1nc(S(=O)(=O)c2ccccc2)c2cc(N3CCN(Cc4ccccc4)CC3)ccc21
57 | 175 | Cc1ccc(Oc2ccc(C(=O)O)cc2)cc1
58 | 54 to 55 | Cc1cc(C)c(CON)c(C)c1
59 | 81 to 83 | O=c1ccc2ccc(CNCCNc3ccccc3)cc2o1
60 | 206 to 207 | O=S(=O)(Nc1cnc(-n2ccnc2)nc1NCc1ccc2c(c1)OCO2)c1ccc(Cl)cc1
61 | 98 to 100 | COc1cccc(CN2CCN(CC(=O)N3CC=C(c4ccccc4)n4ncc(C#N)c43)CC2)c1
62 | 173 to 175 | O=S(=O)(Cl)c1cccc2[nH]nnc12
63 | 61 to 64 | CCC(C)(CC)C(=O)O[C@H]1CCC=C2C=C[C@H](C)[C@H](CC[C@@H]3C[C@@H](O)CC(=O)O3)[C@H]21
64 | 231 to 233 | Cc1nc2c(cc1C(=O)NC(=N)N)CCCCC2COS(=O)(=O)O (stereo unspecified)
65 | 177 to 179 | CC(C)(C)OC(=O)Nc1ccc(NC(=O)C(=O)N2CCC(Cc3ccccc3)CC2)cc1
66 | 175 to 182 | Nc1ccc(Nc2cccc3c2C(=O)c2ccccc2C3=O)cc1
67 | 120 to 128 | CCCn1cc(Cc2ccc(C(=O)NS(=O)(=O)c3ccccc3C)cc2OC)c2cc(CC3CCCN(C)C3=O)ccc21 (stereo unspecified)
68 | 146 to 147 | CC(=O)N[C@@H](C)COc1ccc2nc(-c3cc(F)c(OCC4CC4)c(F)c3)oc2c1F
69 | 129 to 130 | CCOC(=O)C1CCCCCCC(=O)C(=O)N1 (stereo unspecified)
70 | 125 to 127 | COc1cc2c(cc1OC(C)C)-c1cc3c(n1CC2)C(=O)N(C(C)(C)C)CCOC3
71 | 192 to 193 | O=C(O)C(O)=Cc1ccc([N+](=O)[O-])s1
72 | 118 to 119 | Nc1ccccc1-c1nc(CCS(=O)(=O)CCO)no1

Row | melting point [°C] | Compound
73 | 188 to 190 | CNc1nc(-c2cccc(-c3cnc4c(C)cccc4c3)c2)c2cc(OC)c(OC)cc2n1
74 | 221 to 222 | COc1cc(N)cc(OC)c1-c1ccc(C[C@H](NC(=O)c2c(Cl)cccc2Cl)C(=O)O)cc1
75 | 139 | CCOC(=O)C1=C(N)NC(N)=C(C(=O)OCC)C1c1ccccc1
76 | 210 to 211 | CCOC(=O)NNc1n[nH]c2cc(Cl)ccc12
77 | 169 to 170 | Cc1c(CC(N)=O)c2cc(OCc3nc4ccccc4s3)ccc2n1Cc1ccc(Cl)cc1
78 | 158 to 159 | CCOC(=O)c1cc2c(C)ccc(N(C)S(=O)(=O)c3cccnc3Cl)c2[nH]1
79 | 99 to 100 | CC(C)Cn1c(=O)n(C)c(=O)c2c(SCCCO)c(Cc3cccc(F)c3)sc21
80 | 135 to 136 | O=C(c1ccccc1)N1CCc2cc(Cl)ccc21
81 | 153 | Cn1c2ccccc2c2c3c(ccc21)C(=O)OC3=O
82 | 205 to 208 | CCOC(=O)c1cc(-n2c(=O)[nH]c3c(c2=O)CCC3)ccc1[N+](=O)[O-]
83 | 97 to 99 | O=C(CS(=O)(=O)c1ccccc1)NC1CCN(Cc2ccc(Cl)c(Cl)c2)CC1
84 | 131 to 132 | N#CCCNC(=O)c1cccc(-c2cccc(OC3CCCCC3)n2)c1
85 | 92 | Cc1ccc(C(=O)c2ccc3[nH]cc(C4CCN(C)CC4)c3c2)cc1
86 | 59 to 60 | CC(C)(C)OC(=O)N[C@@H](COC(=O)C(C)(C)C)Cc1ccccc1
87 | 138 to 140 | CCOc1nc2cc(OC)cc(C)c2c(=O)o1
88 | 316 to 319 | COc1ccc(-c2ccc(C#N)cn2)cc1-c1nc2cc(C#N)ccc2[nH]1
89 | 157 to 158 | CC(Cc1sc(Br)cc1Cl)NC(=O)c1cn(C)nc1C(F)F (stereo unspecified)
90 | 166 to 168 | O=C1Nc2ccc(Br)cc2C12OCCCO2
91 | 190 to 192 | O=C(O)c1cc([N+](=O)[O-])ccc1NCc1ccco1
92 | 140 to 142 | CC(C)n1c(CC[C@@H](O)C[C@@H](O)CC(=O)O)c(-c2ccc(F)cc2)c(-c2ccc(F)cc2)c1C(=O)NCc1ccc(C(=O)O)cc1
93 | 96 to 98 | CCOC(=O)Cc1cccc(-c2nc(COc3ccc(CO)cc3OC)c(C)o2)c1
94 | 156 to 158 | CC(C)c1ccc([N+](=O)[O-])c(C(C)C)c1NC(=O)CN1CCN(CCCSc2nc3ccccc3o2)CC1
95 | 203 to 204 | COc1cc(OC)nc(C2(O)OC(=O)c3c2ccnc3C)n1 (stereo unspecified)
96 | 89 | Nc1cc(OCC2CC=CCC2)cc(N)n1 (stereo unspecified)

Row | Compound | melting point [°C]
97 | CC(C)n1nc(C(=O)Cl)c2ccccc21 | 63 to 64
98 | Cc1nc(Br)c2n1-c1ccc(Cl)cc1C(c1ccccc1F)=NC2 | 201 to 205
99 | NCCc1c[nH]c2ccc(NC(N)=O)cc12 | 188 to 190
100 | Oc1ccc2[nH]cc(C3=CCN(Cc4ccccc4)CC3)c2c1 | 223 to 227
101 | C[C@H](N)C(=O)NC1N=C(c2ccccc2Cl)c2cc(Cl)ccc2N(C)C1=O (stereo partly specified) | 232 to 233

From a melting point compilation (Tetko et al.; mined from patent text by program, amines drawn as free bases though some values may be those of a salt)
